Legend:
[1] = test system: MDA-MB-468; experiment: Cytotoxicity against human MDA-MB-468 cells assessed as cell growth at 10 uM after 48 hrs by SRB assay relative to control; assay type: functional; conditions: MDA-MB-468, 48 h, read-out: Activity
[2] = test system: T47D; experiment: Cytotoxicity against human T47D cells assessed as cell growth at 10 uM after 48 hrs by SRB assay relative to control; assay type: functional; conditions: read-out: Activity
[3] = test system: MDA-MB-231; experiment: Cytotoxicity against human MDA-MB-231 cells assessed as cell growth at 10 uM after 48 hrs by SRB assay relative to control; assay type: functional; conditions: MDA-MB-231, 48 h, read-out: Activity
[4] = test system: MCF7; experiment: Cytotoxicity against human MCF7 cells assessed as cell growth at 10 uM after 48 hrs by SRB assay relative to control; assay type: functional; conditions: MCF7, 48 h, read-out: Activity
[5] = Cytotoxicity against human UO31 cells assessed as cell growth at 10 uM after 48 hrs by SRB assay relative to control; assay type: functional; conditions: UO-31, 48 h, read-out: Activity
[6] = test system: RXF 393; experiment: Cytotoxicity against human RXF393 cells assessed as cell growth at 10 uM after 48 hrs by SRB assay relative to control; assay type: functional; conditions: RXF 393, 48 h, read-out: Activity
[7] = test system: ACHN; experiment: Cytotoxicity against human ACHN cells assessed as cell growth at 10 uM after 48 hrs by SRB assay relative to control; assay type: functional; conditions: read-out: Activity
[8] = test system: 786-0; experiment: Cytotoxicity against human 786-0 cells assessed as cell growth at 10 uM after 48 hrs by SRB assay relative to control; assay type: functional; conditions: 786-0, 48 h, read-out: Activity
[9] = test system: A498; experiment: Cytotoxicity against human A498 cells assessed as cell growth at 10 uM after 48 hrs by SRB assay relative to control; assay type: functional; conditions: A498, 48 h, read-out: Activity
[10] = Cytotoxicity against human SKOV3 cells assessed as cell growth at 10 uM after 48 hrs by SRB assay relative to control; assay type: functional; conditions: SK-OV-3, 48 h, read-out: Activity
[11] = Cytotoxicity against human NCI-ADR-RES cells assessed as cell growth at 10 uM after 48 hrs by SRB assay relative to control; assay type: functional; conditions: read-out: Activity
[12] = Cytotoxicity against human OVCAR3 cells assessed as cell growth at 10 uM after 48 hrs by SRB assay relative to control; assay type: functional; conditions: OVCAR-3, 48 h, read-out: Activity
[13] = test system: IGROV-1; experiment: Cytotoxicity against human IGROV1 cells assessed as cell growth at 10 uM after 48 hrs by SRB assay relative to control; assay type: functional; conditions: IGROV-1, 48 h, read-out: Activity
[14] = Cytotoxicity against human UACC62 cells assessed as cell growth at 10 uM after 48 hrs by SRB assay relative to control; assay type: functional; conditions: UACC-62, 48 h, read-out: Activity
[15] = test system: SK-MEL-5; experiment: Cytotoxicity against human SK-MEL-5 cells assessed as cell growth at 10 uM after 48 hrs by SRB assay relative to control; assay type: functional; conditions: SK-MEL-5, 48 h, read-out: Activity
[16] = test system: SK-MEL-28; experiment: Cytotoxicity against human SK-MEL-28 cells assessed as cell growth at 10 uM after 48 hrs by SRB assay relative to control; assay type: functional; conditions: SK-MEL-28, 48 h, read-out: Activity
[17] = test system: SK-MEL-2; experiment: Cytotoxicity against human SK-MEL-2 cells assessed as cell growth at 10 uM after 48 hrs by SRB assay relative to control; assay type: functional; conditions: SK-MEL-2, 48 h, read-out: Activity
[18] = test system: M14; experiment: Cytotoxicity against human M14 cells assessed as cell growth at 10 uM after 48 hrs by SRB assay relative to control; assay type: functional; conditions: M14, 48 h, read-out: Activity
[19] = test system: LOX IMVI; experiment: Cytotoxicity against human LOXIMVI cells assessed as cell growth at 10 uM after 48 hrs by SRB assay relative to control; assay type: functional; conditions: read-out: Activity
[20] = test system: SNB-75; experiment: Cytotoxicity against human SNB75 cells assessed as cell growth at 10 uM after 48 hrs by SRB assay relative to control; assay type: functional; conditions: SNB-75, 48 h, read-out: Activity
[21] = test system: SF-539; experiment: Cytotoxicity against human SF539 cells assessed as cell growth at 10 uM after 48 hrs by SRB assay relative to control; assay type: functional; conditions: SF-539, 48 h, read-out: Activity
[22] = test system: SF-295; experiment: Cytotoxicity against human SF295 cells assessed as cell growth at 10 uM after 48 hrs by SRB assay relative to control; assay type: functional; conditions: SF-295, 48 h, read-out: Activity
[23] = test system: KM12; experiment: Cytotoxicity against human KM12 cells assessed as cell growth at 10 uM after 48 hrs by SRB assay relative to control; assay type: functional; conditions: KM12, 48 h, read-out: Activity
[24] = test system: SW-620; experiment: Cytotoxicity against human SW620 cells assessed as cell growth at 10 uM after 48 hrs by SRB assay relative to control; assay type: functional; conditions: SW-620, 48 h, read-out: Activity
[25] = test system: HT-29; experiment: Cytotoxicity against human HT-29 cells assessed as cell growth at 10 uM after 48 hrs by SRB assay relative to control; assay type: functional; conditions: HT-29, 48 h, read-out: Activity
[26] = Cytotoxicity against human HCT116 cells assessed as cell growth at 10 uM after 48 hrs by SRB assay relative to control; assay type: functional; conditions: HCT-116, 48 h, read-out: Activity
[27] = test system: COLO 205; experiment: Cytotoxicity against human COLO205 cells assessed as cell growth at 10 uM after 48 hrs by SRB assay relative to control; assay type: functional; conditions: COLO 205, 48 h, read-out: Activity
[28] = test system: NCI-H23; experiment: Cytotoxicity against human NCI-H23 cells assessed as cell growth at 10 uM after 48 hrs by SRB assay relative to control; assay type: functional; conditions: NCI-H23, 48 h, read-out: Activity
[29] = test system: NCI-H226; experiment: Cytotoxicity against human NCI-H226 cells assessed as cell growth at 10 uM after 48 hrs by SRB assay relative to control; assay type: functional; conditions: NCI-H226, 48 h, read-out: Activity
[30] = test system: A549; experiment: Cytotoxicity against human A549 cells assessed as cell growth at 10 uM after 48 hrs by SRB assay relative to control; assay type: functional; conditions: A549, 48 h, read-out: Activity
[31] = Cytotoxicity against human EKVX cells assessed as cell growth at 10 uM after 48 hrs by SRB assay relative to control; assay type: functional; conditions: read-out: Activity
[32] = test system: MOLT-4; experiment: Cytotoxicity against human MOLT4 cells assessed as cell growth at 10 uM after 48 hrs by SRB assay relative to control; assay type: functional; conditions: MOLT-4, 48 h, read-out: Activity
[33] = test system: HL-60(TB); experiment: Cytotoxicity against human HL-60(TB) cells assessed as cell growth at 10 uM after 48 hrs by SRB assay relative to control; assay type: functional; conditions: HL-60, 48 h, read-out: Activity
[34] = test system: CCRF-CEM; experiment: Cytotoxicity against human CCRF-CEM cells assessed as cell growth at 10 uM after 48 hrs by SRB assay relative to control; assay type: functional; conditions: read-out: Activity
[35] = test system: MDA-MB-231; experiment: Growth inhibition of human MDA-MB-231 cells after 72 hrs by MTT assay; assay type: functional, cell-based; conditions: MDA-MB-231, 72 h
[36] = test system: MCF7; experiment: Growth inhibition of human MCF7 cells after 72 hrs by MTT assay; assay type: functional, cell-based; conditions: MCF7, 72 h

Row | SMILES | growth at 10 µM [1] | growth at 10 µM [2] | growth at 10 µM [3] | growth at 10 µM [4] | growth at 10 µM [5] | growth at 10 µM [6] | growth at 10 µM [7] | growth at 10 µM [8] | growth at 10 µM [9] | growth at 10 µM [10] | growth at 10 µM [11] | growth at 10 µM [12] | growth at 10 µM [13] | growth at 10 µM [14] | growth at 10 µM [15] | growth at 10 µM [16] | growth at 10 µM [17] | growth at 10 µM [18] | growth at 10 µM [19] | growth at 10 µM [20] | other results
1 | CC(C)=CCC[C@H](C)c1ccc(C)c(CO)c1O | 93.5% | 72.2% | 109% | 102% | 76.7% | 92.3% | 110% | 80.1% | 97.4% | 122% | 97.1% | 91.1% | 107% | 90.4% | 85.1% | 134% | 102% | 103% | 103% | 83.4% | growth at 10 µM [21]: 98.4%; growth at 10 µM [22]: 103%; growth at 10 µM [23]: 92.1%; growth at 10 µM [24]: 118%; growth at 10 µM [25]: 103%; growth at 10 µM [26]: 91.3%; growth at 10 µM [27]: 125%; growth at 10 µM [28]: 92.9%; growth at 10 µM [29]: 112%; growth at 10 µM [30]: 78.5%; growth at 10 µM [31]: 103%; growth at 10 µM [32]: 91.4%; growth at 10 µM [33]: 95.7%; growth at 10 µM [34]: 94.2%; IC50 [35]: 22.2 µM; IC50 [36]: > 20 µM
2 | CC(C)=CCC[C@H](C)c1ccc(C)c2c1OCN(CCO)C2 | 82.5% | 70% | 88.8% | 83.9% | 42.4% | 52.4% | 90.1% | 61% | 47.2% | 105% | 73.5% | 86.1% | 66.7% | 96.1% | 81.2% | 111% | 99.2% | 90.9% | 100% | 58.7% | growth at 10 µM [21]: 88.2%; growth at 10 µM [22]: 98.6%; growth at 10 µM [23]: 103%; growth at 10 µM [24]: 100%; growth at 10 µM [25]: 68.7%; growth at 10 µM [26]: 71.8%; growth at 10 µM [27]: 119%; growth at 10 µM [28]: 81.7%; growth at 10 µM [29]: 91.2%; growth at 10 µM [30]: 82.4%; growth at 10 µM [31]: 97.2%; growth at 10 µM [32]: 101%; growth at 10 µM [33]: 90.8%; growth at 10 µM [34]: 87.5%; IC50 [35]: 20.3 µM; IC50 [36]: 8.4 µM
3 | CC(C)=CCC[C@H](C)c1ccc(C)c(CNCCO)c1O | 81.7% | 90.2% | 86.1% | 105% | 54.7% | 79.2% | 97.9% | 83.7% | 66.5% | 88.9% | 88.7% | 95.7% | 94.9% | 92.7% | 92.5% | 112% | 93% | 101% | 88.7% | 77.7% | growth at 10 µM [21]: 96.5%; growth at 10 µM [22]: 105%; growth at 10 µM [23]: 98.7%; growth at 10 µM [24]: 100%; growth at 10 µM [25]: 90.6%; growth at 10 µM [26]: 93.4%; growth at 10 µM [27]: 105%; growth at 10 µM [28]: 89.1%; growth at 10 µM [29]: 90%; growth at 10 µM [30]: 94.4%; growth at 10 µM [31]: 89%; growth at 10 µM [32]: 87.5%; growth at 10 µM [33]: 92.7%; growth at 10 µM [34]: 102%; IC50 [35]: 14.4 µM; IC50 [36]: > 20 µM
4 | CC(C)=CCC[C@H](C)c1ccc(C)cc1O | 95.7% | 111% | 97.1% | 97.8% | 83% | 103% | 109% | 79.9% | 87.8% | 119% | 99% | 96.3% | 97.8% | 100% | 97.5% | 119% | 147% | 106% | 107% | 94.3% | growth at 10 µM [21]: 103%; growth at 10 µM [22]: 107%; growth at 10 µM [23]: 93.8%; growth at 10 µM [24]: 114%; growth at 10 µM [25]: 103%; growth at 10 µM [26]: 97.3%; growth at 10 µM [27]: 117%; growth at 10 µM [28]: 94.9%; growth at 10 µM [29]: 107%; growth at 10 µM [30]: 92.6%; growth at 10 µM [31]: 110%; growth at 10 µM [32]: 102%; growth at 10 µM [33]: 85.7%; growth at 10 µM [34]: 105%; IC50 [35]: > 50 µM; IC50 [36]: > 20 µM

From ChEMBL document CHEMBL3390836, “Mannich- and LedererManasse-based analogues of the natural product S-(+)-curcuphenol as cancer proliferation and migration inhibitors” (Medchemcomm, 2012)
